Measurements as given in patent US20240368181A1, “QUINOXALINE DERIVATIVES AND USES THEREOF” (Black Diamond Therapeutics, Inc., priority 2021, published 2024).

Columns and labels:
Assay type in all cases: cell-based
[1] = tested on: SNU-16 (FGFR2-amplification) cells; test: cell proliferation assay (CellTiterGlo), SNU-16 cells; settings: Homo sapiens, 72 hours
Outline: (§1)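 Cells were incubated with vehicle (DMSO) or compound over a range of concentrations. Growth inhibition was read by CellTiterGlo luminescence of intracellular ATP. IC50 was derived after normalizing to vehicle-treated cells as viable.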

[2] = tested on: UM-UC-14 (FGFR3-S249C) cells; test: cell proliferation assay (CellTiterGlo), UM-UC-14 cells; settings: UMUC14, 72 h
Outline: as §1

[3] = tested on: DMS-114 (FGFR1 overexpression) cells; test: cell proliferation assay (CellTiterGlo), DMS-114 cells; settings: Homo sapiens, DMS-114, 72 h
Outline: as §1

[4] = tested on: RT-112 (FGFR3-Tacc3 fusion) cells; test: cell proliferation assay (CellTiterGlo), RT-112 cells; settings: Homo sapiens, RT-112, RT112 cells, 72 hours
Outline: as §1

Row | Structure (SMILES) | IC50 [1] [nM] | IC50 [2] [nM] | IC50 [3] [nM] | IC50 [4] [nM]
1 | Cc1nc2ccc(Oc3ccc4ncc(-c5cnn(C6CC7(C6)OCCO7)c5)nc4c3Cl)cc2[nH]1 [Compound 346] | 20 to 100 | 20 to 100 | ≥ 400 | 20 to 100
2 | C=CCn1cc(-c2cnc3ccc(Oc4ccc5nc(C)[nH]c5c4)c(Cl)c3n2)cn1 [Compound 347] | 20 to 100 | 100 to 400 | ≥ 400 | 20 to 100
3 | Cc1nc2ccc(Oc3ccc4ncc(-c5cnn(CC(=O)NCCO)c5)nc4c3Cl)cc2[nH]1 [Compound 348] | ≥ 400 | ≥ 400 | ≥ 400 | 100 to 400
4 | Cc1nc2cc(Oc3ccc4ncc(-c5cnn(CC6(O)CCNCC6)c5)nc4c3Cl)ccc2[nH]1 [Compound 349] | ≥ 400 | ≥ 400 | ≥ 400 | ≥ 400
5 | Cc1nc2ccc(Oc3ccc4ncc(-c5cnn(CCNCCO)c5)nc4c3Cl)cc2[nH]1 [Compound 350] | 100 to 400 | 100 to 400 | ≥ 400 | 20 to 100
6 | Cc1nc2ccc(Oc3ccc4ncc(-c5cnn(C6CC7CC6CN7C)c5)nc4c3Cl)cc2[nH]1 (centres unmarked) [Compound 351] | 20 to 100 | 20 to 100 | 100 to 400 | 20 to 100
7 | Cc1nc2ccc(Oc3ccc4ncc(-c5cnn(CC6(C)COC6)c5)nc4c3Cl)cc2[nH]1 [Compound 352] | ≥ 400 | ≥ 400 | ≥ 400 | ≥ 400
8 | Cc1nc2ccc(Oc3ccc4ncc(-c5cnn(C6CC7CC6CN7)c5)nc4c3Cl)cc2[nH]1 (centres unmarked) [Compound 353] | 20 to 100 | 20 to 100 | ≥ 400 | 20 to 100
9 | Cc1nc2ccc(Oc3ccc4ncc(-c5cnn(CC6CCN(C(N)=O)CC6)c5)nc4c3Cl)cc2[nH]1 [Compound 354] | 20 to 100 | 20 to 100 | 100 to 400 | < 20
10 | Cc1nc2ccc(Oc3ccc4ncc(-c5cnn([C@H]6CC[C@H](N7CCC7)CC6)c5)nc4c3Cl)cc2[nH]1 [Compound 355] | 20 to 100 | 20 to 100 | 100 to 400 | 20 to 100
11 | Cc1nc2ccc(Oc3ccc4ncc(-c5cnn([C@H]6CC[C@@H](N7CCC7)CC6)c5)nc4c3Cl)cc2[nH]1 [Compound 356] | 20 to 100 | 20 to 100 | 100 to 400 | 20 to 100
12 | Cc1nc2ccc(Oc3ccc4ncc(-c5cnn(CC6(C)CCOC6)c5)nc4c3Cl)cc2[nH]1 (centres unmarked) [Compound 357] | 20 to 100 | 20 to 100 | ≥ 400 | 20 to 100
13 | Cc1nc2ccc(Oc3ccc4ncc(-c5cnn(C6CCC(F)(F)CC6)c5)nc4c3Cl)cc2[nH]1 [Compound 358] | 20 to 100 | 100 to 400 | ≥ 400 | 100 to 400
14 | Cc1nc2ccc(Oc3ccc4ncc(-c5cnn(C(C)(C)CO)c5)nc4c3Cl)cc2[nH]1 [Compound 359] | 20 to 100 | 20 to 100 | ≥ 400 | 20 to 100
15 | Cc1nc2ccc(Oc3ccc4ncc(-c5cnn([C@H]6CCN(C7COC7)C[C@@H]6F)c5)nc4c3Cl)cc2[nH]1 [Compound 360] | 20 to 100 | 20 to 100 | ≥ 400 | 20 to 100
16 | Cc1nc2ccc(Oc3ccc4ncc(-c5cnn([C@@H]6C[C@H]7CC[C@@H](C6)N7)c5)nc4c3Cl)cc2[nH]1 [Compound 361] | 100 to 400 | 20 to 100 | 100 to 400 | 20 to 100
17 | Cc1nc2ccc(Oc3ccc4ncc(-c5cnn([C@H]6C[C@H]7CC[C@@H](C6)N7)c5)nc4c3Cl)cc2[nH]1 [Compound 362] | 20 to 100 | 20 to 100 | 100 to 400 | 20 to 100
18 | Cc1nc2ccc(Oc3ccc4ncc(-c5cnn([C@@H]6C[C@H]7CC[C@@H](C6)N7C)c5)nc4c3Cl)cc2[nH]1 [Compound 363] | 20 to 100 | 20 to 100 | ≥ 400 | 20 to 100
19 | Cc1nc2ccc(Oc3ccc4ncc(-c5cnn([C@H]6C[C@H]7CC[C@@H](C6)N7C)c5)nc4c3Cl)cc2[nH]1 [Compound 364] | 20 to 100 | < 20 | 100 to 400 | < 20
20 | Cc1nc2ccc(Oc3ccc4ncc(-c5cnn(CC6C7COCC76)c5)nc4c3Cl)cc2[nH]1 (centres unmarked) [Compound 365] | 20 to 100 | 20 to 100 | ≥ 400 | 20 to 100
21 | Cc1nc2ccc(Oc3ccc4ncc(-c5cnn(CC6CCC(S(C)(=O)=O)CC6)c5)nc4c3Cl)cc2[nH]1 (centres unmarked) [Compound 366] | 20 to 100 | 20 to 100 | ≥ 400 | 20 to 100
22 | Cc1nc2ccc(Oc3ccc4ncc(-c5cnn(C[C@@H]6CCN(C)C[C@H]6F)c5)nc4c3Cl)cc2[nH]1 [Compound 367] | 20 to 100 | 20 to 100 | 100 to 400 | < 20

Row | Structure (SMILES) | IC50 [1] [nM] | IC50 [2] [nM] | IC50 [3] [nM] | IC50 [4] [nM]
23 | Cc1nc2ccc(Oc3ccc4ncc(-c5cnn(C[C@H]6CCN(C)C[C@H]6F)c5)nc4c3Cl)cc2[nH]1 [Compound 368] | 20 to 100 | 20 to 100 | 100 to 400 | 20 to 100
24 | Cc1nc2ccc(Oc3ccc4ncc(-c5cnn([C@H]6CCNC[C@@H]6F)c5)nc4c3Cl)cc2[nH]1 [Compound 369] | 20 to 100 | 20 to 100 | ≥ 400 | 20 to 100
25 | Cc1nc2ccc(Oc3ccc4ncc(-c5cnn(C6CCN(C)CC6)c5)nc4c3Cl)cc2[nH]1 [Compound 370] | < 20 | 20 to 100 | 100 to 400 | 20 to 100
26 | CSC1CCC(Cn2cc(-c3cnc4ccc(Oc5ccc6nc(C)[nH]c6c5)c(Cl)c4n3)cn2)CC1 (centres unmarked) [Compound 371] | 20 to 100 | 100 to 400 | ≥ 400 | 20 to 100
27 | CCS(=O)(=O)N1CC(n2cc(-c3cnc4ccc(Oc5ccc6nc(C)[nH]c6c5)c(Cl)c4n3)cn2)C1 [Compound 372] | 20 to 100 | 20 to 100 | ≥ 400 | 20 to 100
28 | CC(=O)N1CCCC(n2cc(-c3cnc4ccc(Oc5ccc6nc(C)[nH]c6c5)c(Cl)c4n3)cn2)C1 (centres unmarked) [Compound 373] | 20 to 100 | 20 to 100 | ≥ 400 | 20 to 100
29 | CCS(=O)(=O)N1CC(CC#N)(n2cc(-c3cnc4ccc(Oc5ccc6nc(C)[nH]c6c5)c(Cl)c4n3)cn2)C1 [Compound 374] | 20 to 100 | 20 to 100 | ≥ 400 | < 20
30 | Cc1nc2ccc(Oc3ccc4ncc(-c5cnn(CC6CCNCC6F)c5)nc4c3Cl)cc2[nH]1 (centres unmarked) [Compound 375] | 20 to 100 | 20 to 100 | 100 to 400 | < 20
31 | Cc1nc2ccc(Oc3ccc4ncc(-c5cnn(CCC6C=CCO6)c5)nc4c3Cl)cc2[nH]1 (centres unmarked) [Compound 376] | 20 to 100 | 20 to 100 | ≥ 400 | 20 to 100
32 | Cc1nc2ccc(Oc3ccc4ncc(-c5cnn(CC6CCSCC6)c5)nc4c3Cl)cc2[nH]1 [Compound 377] | 20 to 100 | 20 to 100 | ≥ 400 | 20 to 100
33 | Cc1nc2ccc(Oc3ccc4ncc(-c5cnn(C6CCCN(C)C6)c5)nc4c3Cl)cc2[nH]1 (centres unmarked) [Compound 378] | 20 to 100 | 20 to 100 | ≥ 400 | 20 to 100
34 | Cc1nc2ccc(Oc3ccc4ncc(-c5cnn(CC6CC7CC6CN7C)c5)nc4c3Cl)cc2[nH]1 (centres unmarked) [Compound 379] | 20 to 100 | 20 to 100 | 100 to 400 | 20 to 100
35 | Cc1nc2ccc(Oc3ccc4ncc(-c5cnn(CC6CCN(C)CC6(F)F)c5)nc4c3Cl)cc2[nH]1 (centres unmarked) [Compound 380] | 20 to 100 | 20 to 100 | ≥ 400 | < 20
36 | Cc1nc2ccc(Oc3ccc4ncc(-c5cnn(CCN6CCCC6)c5)nc4c3Cl)cc2[nH]1 [Compound 381] | 20 to 100 | 20 to 100 | ≥ 400 | 20 to 100
37 | Cc1nc2ccc(Oc3ccc4ncc(-c5cnn(CC6CCN(C)CC6)c5)nc4c3C#N)cc2[nH]1 [Compound 382] | 20 to 100 | 20 to 100 | 100 to 400 | 20 to 100
38 | Cc1nc2ccc(Oc3ccc4ncc(-c5cnn(CC(=O)N6CCCC6)c5)nc4c3Cl)cc2[nH]1 [Compound 383] | 20 to 100 | 20 to 100 | ≥ 400 | 20 to 100
39 | C=CS(=O)(=O)N1CCC(Cn2cc(-c3cnc4ccc(Oc5ccc6nc(C)[nH]c6c5)c(Cl)c4n3)cn2)CC1 [Compound 384] | ≥ 400 | ≥ 400 | ≥ 400 | ≥ 400
40 | Cc1nc2ccc(Oc3ccc4ncc(-c5cnn(CC6CCS(=O)(=O)CC6)c5)nc4c3Cl)cc2[nH]1 [Compound 385] | 20 to 100 | 20 to 100 | 100 to 400 | < 20
41 | Cc1nc2ccc(Oc3ccc4ncc(-c5cnn(CC6CCNCC6(F)F)c5)nc4c3Cl)cc2[nH]1 (centres unmarked) [Compound 386] | 20 to 100 | 20 to 100 | ≥ 400 | 20 to 100
42 | Cc1nc2ccc(Oc3ccc4ncc(-c5cnn(CC6CC(F)(F)C6)c5)nc4c3Cl)cc2[nH]1 [Compound 387] | 20 to 100 | 20 to 100 | ≥ 400 | 20 to 100
43 | CCOC(Cn1cc(-c2cnc3ccc(Oc4ccc5nc(C)[nH]c5c4)c(Cl)c3n2)cn1)OCC [Compound 388] | 100 to 400 | 100 to 400 | ≥ 400 | 100 to 400
44 | Cc1nc2ccc(Oc3ccc4ncc(-c5cnn(CC6OCCCO6)c5)nc4c3Cl)cc2[nH]1 [Compound 389] | 20 to 100 | 100 to 400 | ≥ 400 | 20 to 100
